Assay results as given in publication PMC8058733, “A pain killer without analgesic tolerance designed by co-targeting PSD-95-nNOS interaction and α2-containning GABAARs” (Theranostics, 2021).

Tests used:
spatial memory = experiment: Morris water maze task; format: in vivo; settings: rats; ZL006-05 90 mg/kg/d, i.g.; MK801 0.25 mg/kg/d, i.v.; 6 days
Description: The Morris water maze task was used to exam spatial cognitive performance of rats. A circular swimming pool (Jiliang Neuroscience Inc.) measuring 180 cm in diameter and 48 cm in height was filled with water to a depth of 26 cm at 24 ± 2 °C. Four starting points around the edge of the pool were designated as N, E, S, and W, which divided the pool into four quadrants. A platform, 10 cm in diameter, was located in a constant position in the middle of one quadrant. To render it invisible to the rats, platform was submerged 2.0 cm below the surface of the water. The task for the rats was to escape from the water by locating the hidden platform. Two days before training, the animals were habituated to swimming for 60 s in the pool without a platform. In training session, rats were trained to escape from the water by locating the platform which was above the water with a red flag on it. Then, one block of four trails was given for 6 consecutive days, and on each day, two groups of rats were administrated with MK801 (0.25 mg/kg, i.v.) or vehicle (6 mL/kg, i.v.) 30 minutes before the first trail. Meanwhile, another two groups of rats were treated with ZL006-05 (90 mg/kg, i.g.) or vehicle (6 mL/kg, i.g.) 1 hour before the first trail. […] During retention, the number of crossings of the platform location and the time spent in the target quadrant were measured.

neuropathic pain = system: neuropathic pain; parameters: method as in PMID 32632774; settings: treatment of neuropathic pain, chronic use; cited from earlier work
α2β3γ2 GABAARs = biological target: T1, α2β3γ2 GABAARs (Homo sapiens, UniProt P18507+P28472+P47869); experiment: Potentiation of GABA-evoked currents, whole-cell patch-clamp in HEK293 cells transiently expressing recombinant GABAARs; format: cell-based
T1 construct: Shanghai Genechem Co.,Ltd (γ2 plasmid); host or cells: HEK293
T1 sequence (P47869 29-451): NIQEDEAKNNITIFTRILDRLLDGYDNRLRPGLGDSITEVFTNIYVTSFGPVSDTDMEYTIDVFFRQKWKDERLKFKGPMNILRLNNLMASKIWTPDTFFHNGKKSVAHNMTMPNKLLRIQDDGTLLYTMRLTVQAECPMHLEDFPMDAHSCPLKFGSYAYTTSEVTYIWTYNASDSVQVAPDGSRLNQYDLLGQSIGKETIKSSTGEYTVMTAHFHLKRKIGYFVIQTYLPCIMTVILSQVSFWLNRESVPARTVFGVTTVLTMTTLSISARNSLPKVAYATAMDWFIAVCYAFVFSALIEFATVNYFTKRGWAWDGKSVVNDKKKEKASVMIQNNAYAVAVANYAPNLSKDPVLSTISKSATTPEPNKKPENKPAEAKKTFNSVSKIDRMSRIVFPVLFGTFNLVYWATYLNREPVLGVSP
T1 sequence (P28472 26-473): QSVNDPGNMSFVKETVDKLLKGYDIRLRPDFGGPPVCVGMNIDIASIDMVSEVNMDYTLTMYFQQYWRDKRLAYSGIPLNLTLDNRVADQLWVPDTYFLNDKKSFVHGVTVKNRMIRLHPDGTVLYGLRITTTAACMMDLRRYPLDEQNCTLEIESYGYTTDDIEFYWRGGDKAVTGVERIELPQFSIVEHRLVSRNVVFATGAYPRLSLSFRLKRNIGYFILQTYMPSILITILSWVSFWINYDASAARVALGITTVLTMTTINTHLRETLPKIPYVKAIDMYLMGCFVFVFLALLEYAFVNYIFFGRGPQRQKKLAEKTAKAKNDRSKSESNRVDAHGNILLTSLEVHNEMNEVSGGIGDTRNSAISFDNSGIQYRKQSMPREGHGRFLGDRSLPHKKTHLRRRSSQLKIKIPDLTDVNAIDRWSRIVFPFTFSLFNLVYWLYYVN
T1 sequence (P18507 40-475): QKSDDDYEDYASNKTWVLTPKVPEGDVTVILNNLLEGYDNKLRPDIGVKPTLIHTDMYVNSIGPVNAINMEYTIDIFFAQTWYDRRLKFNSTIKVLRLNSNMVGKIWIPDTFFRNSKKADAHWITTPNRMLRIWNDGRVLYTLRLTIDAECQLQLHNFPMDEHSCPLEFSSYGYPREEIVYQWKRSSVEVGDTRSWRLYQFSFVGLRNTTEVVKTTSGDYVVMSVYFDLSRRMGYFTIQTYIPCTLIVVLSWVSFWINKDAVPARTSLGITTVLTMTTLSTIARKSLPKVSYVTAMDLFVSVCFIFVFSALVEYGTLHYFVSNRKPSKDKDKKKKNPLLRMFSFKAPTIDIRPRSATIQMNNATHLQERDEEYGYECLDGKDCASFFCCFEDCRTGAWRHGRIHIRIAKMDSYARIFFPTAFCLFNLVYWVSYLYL
Description: (§1) The affinities of drugs for α1, α2, α3 and α5 subunits were studied in the HEK293 cells (from FuHeng Biology, Shanghai, China) transiently expressing recombinant GABAARs (α1β2γ2, α2β3γ2, α3β3γ2 and α5β2γ2) as described previously. Briefly, the HEK293 cells were cultured in MEM medium supplemented with 10% FBS (fetal bovine serum, Gibico), 1% L-glutamine (Gibco) and 1% mycillin (Gibco). Before transfection, the cells were subcultured onto a 3.5cm dish at the ratio of 1:2. Then, the plasmids of α1/α2/α3/α5 (Origene), β2/β3 (Origene) and γ2 (Shanghai Genechem Co.,Ltd ) (5μg total DNA, ratio 1:1:2) were transfected using Fugene®HD transfection reagent (Promega). The γ2 subunit contained GFP from IRES (internal ribosomal entry site) and was used as a marker of the successful transfection. Cells were used for electrophysiology recording 18-36 hours after transfection.
(§2) Electrophysiology recordings from HEK293 cells were performed as described previously. Briefly, whole-cell patch-clamp recordings of GABA-evoked currents were made at 30 °C with the holding potential of -60 mV. The internal solution (solution in recording electrodes) contained (in mM): 120 CsCl, 10 EGTA, 10 HEPES, 4 MgCl2, 0.5 GTP, 2 ATP and pH was adjusted to 7.4 with CsOH and the external solution contained (in mM): 150 NaCl, 10 KCl, 2 CaCl2, 1 MgCl, 10 HEPES, 10 Glucose and pH was adjusted to 7.4 with NaOH. ACSF was bubbled continuously with carbogen (95%O2 and 5%CO2). For the recording of GABA-evoked currents, the slides were transferred to a recording chamber, which was perfused with ACSF at a rate of 4 ml/min. The cells were viewed under upright microscopy (Olympus), and GFP-positive cells were selected to record the currents. The interval time between each different dose of GABA was controlled, 3 to 5 minutes to avoid the desensitization of GABAARs.

[1] = system: SNL-induced mechanical hyperalgesia; experiment: SNL-induced mechanical hyperalgesia, paw withdrawal threshold; format: in vivo, rat; settings: SNL rats, 60 mg/kg/d, i.g., 11 d
Description: (§3) Neuropathic pain was induced by segmental spinal nerve ligation (SNL). Animals were anesthetized with isoflurane. After the loss of righting reflex, the animal was fixed in the prone position. The SNL model was prepared as described previously: a median skin incision with about 3-5 cm length in L4-S2 level of the mouse back was made, the muscles next to the vertebrae till the sixth lumbar protruding were separated, the L5/L6 joint protruding on the right side was exposed and excised, and L6 processus transversus was partially split so that the L4-L6 spinal nerves on the right side were exposed. L5 nerve was gently isolated and tightly ligated with 5-0 silk thread. The wound was closed with 4-0 silk thread suture and covered with iodine solution. After nerve ligation, animals with signs of paw clonus or autotomy were excluded from further experiments.
Osmotic minipumps (models 1004 for mouse and 2ML4 for rat; Alzet) and intrathecal cannulas (0.61 mm outer diameter and 0.28 mm inner diameter for mouse, 0.99 mm outer diameter and 0.58 mm inner diameter for rat) were filled with a solution of PBS. Cannulas were inserted into the subarachnoid space through the space between the L5 and L6 vertebrae and the tip of the catheter was implanted at the L5 spinal segmental level.
For rats, the threshold for 50% paw withdrawal (50% PWT) response to mechanical stimulus was assessed through a dynamic plantar apparatus (Ugo Basile, Italy). The 50% PWT refers to that the probability of paw withdrawal response to repeated mechanical stimulus is 50%. Rats were placed individually in a plastic cage (17 × 15 × 15 cm) with a wire mesh bottom which allowed full access to the paws. Behavioral accommodation was allowed for 15-20 min until cage exploration and major grooming activities ceased. A maximal cut-off of 50g/50s was set to prevent tissue damage. To record the PWT in response to mechanical stimulus, each rat was measured five times with a 5-min interval, and the mean value was recorded after excluding maximal and minimum values. The experimental procedures were performed in a double-blind manner.

PSD-95-nNOS complex = biological target: T2, PSD-95-nNOS complex (Rattus norvegicus, UniProt P29476); experiment: Co-IP of PSD-95-nNOS complex levels in the spinal dorsal horn after SNL; format: in vivo; settings: SNL rats, 60 mg/kg/d, i.g., 3 d
T2 construct: dorsal spinal cord tissues (L4 and L5) were lysed in 400 μl RIPA; from tissue; host or cells: rat dorsal spinal cord (L4 and L5), SNL model
T2 sequence (P29476 whole entry, one chain of several): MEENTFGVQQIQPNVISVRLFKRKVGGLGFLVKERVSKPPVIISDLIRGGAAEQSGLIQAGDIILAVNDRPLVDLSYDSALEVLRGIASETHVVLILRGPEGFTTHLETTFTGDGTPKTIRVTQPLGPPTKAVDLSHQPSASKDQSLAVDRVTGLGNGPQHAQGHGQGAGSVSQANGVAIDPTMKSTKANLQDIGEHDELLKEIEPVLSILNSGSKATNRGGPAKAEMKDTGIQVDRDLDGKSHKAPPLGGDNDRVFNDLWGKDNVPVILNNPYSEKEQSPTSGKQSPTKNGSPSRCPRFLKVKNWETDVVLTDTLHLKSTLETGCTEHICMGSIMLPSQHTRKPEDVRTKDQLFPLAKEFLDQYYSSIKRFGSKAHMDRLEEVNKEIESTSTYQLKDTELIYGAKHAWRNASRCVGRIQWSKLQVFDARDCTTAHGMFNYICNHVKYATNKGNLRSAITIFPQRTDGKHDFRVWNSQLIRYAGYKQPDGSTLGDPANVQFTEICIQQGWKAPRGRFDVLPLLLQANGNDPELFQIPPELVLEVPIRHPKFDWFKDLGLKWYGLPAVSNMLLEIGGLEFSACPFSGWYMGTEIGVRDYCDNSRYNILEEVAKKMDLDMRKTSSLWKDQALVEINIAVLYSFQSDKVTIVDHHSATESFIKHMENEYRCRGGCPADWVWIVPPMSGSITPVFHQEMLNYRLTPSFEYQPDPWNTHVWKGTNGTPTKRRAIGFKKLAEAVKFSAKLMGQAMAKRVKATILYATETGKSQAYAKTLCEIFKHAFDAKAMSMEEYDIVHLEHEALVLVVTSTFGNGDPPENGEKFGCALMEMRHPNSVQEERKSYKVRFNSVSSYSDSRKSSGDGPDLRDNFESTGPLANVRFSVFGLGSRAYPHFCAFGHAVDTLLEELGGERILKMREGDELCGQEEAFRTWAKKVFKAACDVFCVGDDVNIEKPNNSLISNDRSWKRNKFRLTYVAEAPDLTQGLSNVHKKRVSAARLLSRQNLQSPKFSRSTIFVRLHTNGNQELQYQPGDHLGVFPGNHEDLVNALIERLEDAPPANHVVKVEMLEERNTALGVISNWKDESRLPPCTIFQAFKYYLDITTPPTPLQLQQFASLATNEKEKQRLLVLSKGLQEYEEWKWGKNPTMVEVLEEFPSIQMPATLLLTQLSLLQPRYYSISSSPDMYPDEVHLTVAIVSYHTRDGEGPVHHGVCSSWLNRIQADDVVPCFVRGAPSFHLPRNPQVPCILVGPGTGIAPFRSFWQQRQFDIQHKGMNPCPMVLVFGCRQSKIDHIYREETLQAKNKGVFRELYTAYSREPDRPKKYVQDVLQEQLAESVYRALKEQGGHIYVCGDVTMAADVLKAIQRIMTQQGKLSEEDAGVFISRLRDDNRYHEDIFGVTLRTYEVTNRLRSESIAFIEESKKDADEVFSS

α1β2γ2 GABAARs = biological target: T3, α1β2γ2 GABAARs (Homo sapiens, UniProt P14867+P18507+P47870); experiment: Potentiation of GABA-evoked currents, whole-cell patch-clamp in HEK293 cells transiently expressing recombinant GABAARs; format: cell-based; settings: α1β2γ2, n = 8
T3 construct: Shanghai Genechem Co.,Ltd (γ2 plasmid); host or cells: HEK293
T3 sequence (P14867 28-456): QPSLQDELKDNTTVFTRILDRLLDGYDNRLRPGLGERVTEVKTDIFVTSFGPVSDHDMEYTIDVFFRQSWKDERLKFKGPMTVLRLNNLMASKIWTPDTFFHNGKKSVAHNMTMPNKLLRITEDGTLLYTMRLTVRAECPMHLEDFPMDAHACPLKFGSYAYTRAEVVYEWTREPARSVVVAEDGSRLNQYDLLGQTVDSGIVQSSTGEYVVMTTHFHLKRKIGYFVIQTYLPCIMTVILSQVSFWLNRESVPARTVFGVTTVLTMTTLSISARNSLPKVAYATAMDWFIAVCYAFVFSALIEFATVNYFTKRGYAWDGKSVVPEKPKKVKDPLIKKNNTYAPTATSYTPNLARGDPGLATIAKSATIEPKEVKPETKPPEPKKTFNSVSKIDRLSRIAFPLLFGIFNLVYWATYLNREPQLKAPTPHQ
T3 sequence (P47870 25-512 limits assumed): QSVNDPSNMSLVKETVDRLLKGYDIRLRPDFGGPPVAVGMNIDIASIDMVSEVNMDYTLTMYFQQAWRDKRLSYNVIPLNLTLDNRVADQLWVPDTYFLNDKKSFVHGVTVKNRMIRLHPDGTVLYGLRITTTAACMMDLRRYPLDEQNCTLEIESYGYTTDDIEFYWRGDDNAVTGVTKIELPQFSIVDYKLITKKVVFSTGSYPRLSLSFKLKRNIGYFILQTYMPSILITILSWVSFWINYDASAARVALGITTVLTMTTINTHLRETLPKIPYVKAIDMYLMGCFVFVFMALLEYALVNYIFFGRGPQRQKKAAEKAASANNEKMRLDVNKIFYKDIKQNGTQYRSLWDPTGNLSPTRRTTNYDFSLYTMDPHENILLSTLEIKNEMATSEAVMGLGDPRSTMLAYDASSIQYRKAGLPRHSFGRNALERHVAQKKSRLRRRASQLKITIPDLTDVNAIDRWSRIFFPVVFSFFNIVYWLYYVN
T3 sequence (P18507 40-475): as the sequence (P18507 40-475) above
Description: as §1, §2

α3β3γ2 GABAARs = biological target: T4, α3β3γ2 GABAARs (Homo sapiens, UniProt P18507+P28472+P34903); experiment: as above; format: cell-based; settings: α3β3γ2, n = 8
T4 construct: Shanghai Genechem Co.,Ltd (γ2 plasmid); host or cells: HEK293
T4 sequence (P34903 29-492): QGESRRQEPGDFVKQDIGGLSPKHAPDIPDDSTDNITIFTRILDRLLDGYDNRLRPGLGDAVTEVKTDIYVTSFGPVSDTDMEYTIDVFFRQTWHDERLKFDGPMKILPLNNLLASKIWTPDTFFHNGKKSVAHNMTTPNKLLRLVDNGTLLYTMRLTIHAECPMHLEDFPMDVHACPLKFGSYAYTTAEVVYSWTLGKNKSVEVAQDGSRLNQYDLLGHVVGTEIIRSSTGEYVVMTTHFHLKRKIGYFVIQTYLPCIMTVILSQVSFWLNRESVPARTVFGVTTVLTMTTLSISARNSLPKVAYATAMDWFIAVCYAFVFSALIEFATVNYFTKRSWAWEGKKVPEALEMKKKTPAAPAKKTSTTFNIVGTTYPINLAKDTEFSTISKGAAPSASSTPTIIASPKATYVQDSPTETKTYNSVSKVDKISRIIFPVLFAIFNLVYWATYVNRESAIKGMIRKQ
T4 sequence (P28472 26-473): as the sequence (P28472 26-473) above
T4 sequence (P18507 40-475): as the sequence (P18507 40-475) above
Description: as §1, §2

locomotor activity = experiment: Open field test, locomotor activity; format: in vivo; settings: mice, 1 h after injection, ZL006-05 60 mg/kg, i.v., diazepam 0.5 mg/kg
Description: The locomotor activity was assessed by the open field test as described previously. The apparatus consisted of a large area composed of plastic, surrounded by walls that were 100 cm high. The floor was 50 × 50 cm for mice; the overall illumination was 25 lux. Each animal was gently placed in the center of the open field, and its behavior was videotaped. The distance the animals travelled was measured in a 5-min session using ANY-maze (Stoelting Co., IL, USA). After each trial, the plate was cleaned with 70% EtOH. No stressor was applied to the animals for at least 12 h before the test.

motor coordination = experiment: Rotarod test, motor coordination; format: in vivo; settings: rats, 30 min after injection, ZL006-05 60 mg/kg, i.v., diazepam 0.5 mg/kg
[2] = system: SNL-induced mechanical hyperalgesia; experiment: SNL-induced mechanical hyperalgesia, von Frey; format: in vivo, mice; settings: SNL mice, ZL006-05 60 mg/kg/d, i.g., × 28 d; pregabalin 30 mg/kg/d
Description: as §3
For mice, the threshold for 50% PWT response to mechanical stimulus was quantified by assessing the paw withdrawal threshold using von Frey filaments (Touch-Test TM Sensory Evaluator, North coast Medical, Inc.). Mice were placed individually in a plastic cage (4.5 × 5 × 11 cm) with a wire mesh bottom which allowed full access to the paws. Behavioral accommodation was allowed for 20-30 min until cage exploration and major grooming activities ceased. Mechanical threshold was measured by applying a von Frey filament to the ventral surface of the right hind paw until a positive sign of pain behavior was elicited. The paradigm for assessing the threshold was as follows. Von Frey filaments with logarithmically incremental stiffness (0.02-2 g) were applied serially to the paw by the up-down method. The filaments were presented, in ascending order of strength, perpendicular to the plantar surface with sufficient force to causes light bending against the paw and held for 4s. A positive response was noted if the paw was sharply withdrawn. Flinching immediately upon removal of the hair was also considered a positive response. The 2-g filament was selected as the upper limit cut-off for testing. If there was no response at 2-g filament, animals were assigned this cut-off value. The pattern of positive and negative withdrawal responses was converted to 50% threshold according to the formula: 50% PWT = 10 log (X) + κδ. X = value (in log unit) of the final von Frey hair used; κ is correction factors based on the pattern of responses from the calibration table; δ = mean difference in log units between stimuli (here, 0.224).

C[C@]12N[C@H](Cc3ccccc31)c1ccccc12 [MK801]
Spatial memory in the Morris water maze task (spatial memory): caused significantly impaired spatial memory
Analgesic tolerance when used chronically (neuropathic pain): cause obvious analgesic tolerance

O=C(OC1CCCCC1)c1ccc(NCc2cc(Cl)cc(Cl)c2O)cc1O [ZL006-05A]
Effect on α2-containing GABAAR (in words) (α2β3γ2 GABAARs; α2β3γ2): without ability to target α2-containing GABAAR
Analgesic tolerance, mechanical hyperalgesia [1]: caused substantial analgesic tolerance

CC1(C)C2CCC1(C)C(OC(=O)c1ccc(NCc3ccccc3O)cc1O)C2 (centres unmarked) [ZL006-05B]
EC50 (α2β3γ2 GABAARs; α2β3γ2, n = 8): 2.834 ± 0.0033 nM
Emax (α2β3γ2 GABAARs; α2β3γ2, n = 8): 104 ± 21.9%
PSD-95-nNOS complex level in the SDH (PSD-95-nNOS complex): without ability to target PSD-95-nNOS
Analgesic tolerance, mechanical hyperalgesia [1]: caused substantial analgesic tolerance

CN1C(=O)CN=C(c2ccccc2)c2cc(Cl)ccc21 [diazepam]
Emax (α1β2γ2 GABAARs): 109 ± 18.5%
Emax (α2β3γ2 GABAARs; α2β3γ2, n = 8): 118 ± 16.4%
Emax (α3β3γ2 GABAARs): 113 ± 8.58%
Locomotor activity, distance travelled during 5 min (locomotor activity): reduced the locomotor activity of mice in the open-field test
Motor coordination, time spent on the accelerating rotarod (motor coordination): shortened the time for rats to fall off an accelerating rotarod significantly

CC(C)C[C@H](CN)CC(=O)O [pregabalin]
Analgesic tolerance, mechanical hyperalgesia, 28 days treatment [2]: caused a severe analgesic tolerance
